Assay results taken from PubChem BioAssay (NCI).
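Test compounds were applied to cells in 96-well plates for 48 hours at 5 doses. TGI denotes the concentration required for complete inhibition of growth.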

Legend:
Experiment in all cases: NCI tumour cell line growth inhibition, 48 h
[1] = system: HOP-92 NSCLC
[2] = system: OVCAR-8 ovarian
[3] = system: SNB-75 CNS
[4] = system: NCI-H23 lung
[5] = system: HCC-2998 colon
[6] = system: SN12C renal
[7] = system: SNB-78 CNS
[8] = system: NCI/ADR-RES ovarian
[9] = system: KM12 colon
[10] = system: NCI-H460 lung
[11] = system: SW-620 colon
[12] = system: LXFL 529 NSCLC
[13] = system: A549 NSCLC
[14] = system: NCI-H226 lung
[15] = system: DU-145 prostate
[16] = system: UACC-62 melanoma
[17] = system: CAKI-1 renal
[18] = system: T-47D breast
[19] = system: SR leukemia
[20] = system: SK-MEL-2 melanoma
[21] = system: SNB-19 CNS
[22] = system: U251 CNS
[23] = system: MDA-N
[24] = system: OVCAR-5 ovarian
[25] = system: ACHN renal
[26] = system: MALME-3M melanoma
[27] = system: SK-MEL-5 melanoma
[28] = system: BT-549 breast
[29] = system: TK-10 renal
[30] = system: HS 578T breast
[31] = system: MCF7 breast
[32] = system: EKVX NSCLC
[33] = system: M19-MEL melanoma
[34] = system: HOP-62 NSCLC
[35] = system: K-562 leukemia
[36] = system: COLO 205 colon
[37] = system: A498 renal
[38] = system: UO-31 renal
[39] = system: DMS 273 small cell lung
[40] = system: DLD-1 colon
[41] = system: MDA-MB-435
[42] = system: RXF 393 renal
[43] = system: OVCAR-4 ovarian
[44] = system: KM20L2 colon
[45] = system: NCI-H522 lung
[46] = system: 786-0 renal
[47] = system: HL-60(TB) leukemia
[48] = system: PC-3 prostate
[49] = system: HCT-15 colon
[50] = system: RPMI-8226 leukemia
[51] = system: HCT-116 colon
[52] = system: SF-295 CNS
[53] = system: UACC-257 melanoma
[54] = system: SK-OV-3 ovarian
[55] = system: SF-268 CNS
[56] = system: HOP-18 NSCLC
[57] = system: LOX IMVI melanoma
[58] = system: M14 melanoma
[59] = system: SF-539 CNS
[60] = system: IGROV1 ovarian
[61] = system: HT29 colon
[62] = system: RXF-631 renal
[63] = system: CCRF-CEM leukemia
[64] = system: MDA-MB-231 breast
[65] = system: OVCAR-3 ovarian
[66] = system: MOLT-4 leukemia
[67] = system: SK-MEL-28 melanoma

## C=CCc1cc(-c2cc(CC=C)c(O)c(CN(CCCl)CCCl)c2)cc(CN(CCCl)CCCl)c1O
[1]
  TGI: 32.2 µM
[2]
  TGI: 74.1 µM
[3]
  TGI: 58.6 µM
[4]
  TGI: 22.1 µM
[5]
  TGI: 29.2 µM
[6]
  TGI: 27.7 µM
[7]
  TGI: > 100 µM
[8]
  TGI: 78.4 µM
[9]
  TGI: 36.7 µM
[10]
  TGI: 29.1 µM
[11]
  TGI: 27.7 µM
[12]
  TGI: 29.7 µM
[13]
  TGI: 45.3 µM
[14]
  TGI: 33.5 µM
[15]
  TGI: 30.8 µM
[16]
  TGI: 28.9 µM
[17]
  TGI: 34.6 µM
[18]
  TGI: 24.8 µM
[19]
  TGI: > 100 µM
[20]
  TGI: 40.6 µM
[21]
  TGI: 51.8 µM
[22]
  TGI: 24.8 µM
[23]
  TGI: 35 µM
[24]
  TGI: 35.4 µM
[25]
  TGI: 21.9 µM
[26]
  TGI: 42.6 µM
[27]
  TGI: 32.7 µM
[28]
  TGI: 66.9 µM
[29]
  TGI: 38.8 µM
[30]
  TGI: > 100 µM
[31]
  TGI: 42.7 µM
[32]
  TGI: 22.5 µM
[33]
  TGI: 34.7 µM
[34]
  TGI: 43.5 µM
[35]
  TGI: > 100 µM
[36]
  TGI: 43.4 µM
[37]
  TGI: 40.5 µM
[38]
  TGI: 32.1 µM
[39]
  TGI: 30.3 µM
[40]
  TGI: 36.2 µM
[41]
  TGI: 31.1 µM
[42]
  TGI: 35.8 µM
[43]
  TGI: 52.6 µM
[44]
  TGI: 35.4 µM
[45]
  TGI: 27.3 µM
[46]
  TGI: 37.9 µM
[47]
  TGI: > 100 µM
[48]
  TGI: 25.8 µM
[49]
  TGI: 38 µM
[50]
  TGI: > 100 µM
[51]
  TGI: 25.3 µM
[52]
  TGI: 38.7 µM
[53]
  TGI: 33.7 µM
[54]
  TGI: 46.9 µM
[55]
  TGI: 47.8 µM
[56]
  TGI: 67 µM
[57]
  TGI: > 80.8 µM
[58]
  TGI: 38.3 µM
[59]
  TGI: 36.3 µM
[60]
  TGI: 38.9 µM
[61]
  TGI: 33.3 µM
[62]
  TGI: 39.3 µM
[63]
  TGI: > 100 µM
[64]
  TGI: 45.2 µM
[65]
  TGI: 36.2 µM
[66]
  TGI: > 100 µM
[67]
  TGI: 40.2 µM
